Measured values reported in US20140094493A1, “Novel Ether Linked Compounds and Improved Treatments for Cardiac and Cardiovascular Disease” (priority 2011, published 2014).
Where a name gives a salt, the structure may show the parent alone.

What was measured:
human beta1-adrenoceptor = target: T1, human beta1-adrenoceptor (Homo sapiens, UniProt P08588); assay: 3H-CGP12177 whole-cell binding, beta1; conditions: for Kd / Beta 1 Log KD: 3H-CGP 12177 whole cell binding, CHO cells expressing human beta1-adrenoceptor, logarithmic value; for Kd: read-out: Beta 1 Log KD (converted); for Beta 1-Beta 2 Log KD (selectivity): difference of Log KD beta1 and beta2, 1 = 10-fold, 2 = 100-fold, 3 = 1000-fold selectivity
T1 construct: expressed in transfected cells; host or cells: CHO cells
Experimental: (§1) Selectivity of ligands for the three beta-adrenoceptors was assessed by whole-cell binding studies using ^3H-CGP12177 in CHO cells expressing the human beta1, beta2 or beta3-adrenoceptors respectively essentially as described by Baker (2005; Br. J Pharmacol: 144, 317-22) Values shown are KD values determined as described by Baker (2005). KD represents the concentration of compound required to occupy 50% of the receptors in cells or tissues.
(§2) The selectivity of a ligand is given by the ratio of beta-1 to beta-2 KD. Accordingly a difference of one in the logarithmic values thereof represents a 10-fold selectivity, a difference of 2 represents 100-fold selectivity and a difference of 3 represents 1000-fold selectivity etc.

human beta2-adrenoceptor = target: T2, human beta2-adrenoceptor (Homo sapiens, UniProt P07550); assay: 3H-CGP12177 whole-cell binding, beta2; conditions: 3H-CGP 12177 whole cell binding, CHO cells expressing human beta2-adrenoceptor, logarithmic value; for Kd: read-out: Beta 2 Log KD (converted)
T2 construct: expressed in transfected cells; host or cells: CHO cells
Experimental: as §1, §2

β1-adrenoceptor = β1-adrenoceptor (Homo sapiens, UniProt P08588); conditions: background statement on known compounds; cited from earlier work
Chain of β1-adrenoceptor (P08588 whole entry, species assumed): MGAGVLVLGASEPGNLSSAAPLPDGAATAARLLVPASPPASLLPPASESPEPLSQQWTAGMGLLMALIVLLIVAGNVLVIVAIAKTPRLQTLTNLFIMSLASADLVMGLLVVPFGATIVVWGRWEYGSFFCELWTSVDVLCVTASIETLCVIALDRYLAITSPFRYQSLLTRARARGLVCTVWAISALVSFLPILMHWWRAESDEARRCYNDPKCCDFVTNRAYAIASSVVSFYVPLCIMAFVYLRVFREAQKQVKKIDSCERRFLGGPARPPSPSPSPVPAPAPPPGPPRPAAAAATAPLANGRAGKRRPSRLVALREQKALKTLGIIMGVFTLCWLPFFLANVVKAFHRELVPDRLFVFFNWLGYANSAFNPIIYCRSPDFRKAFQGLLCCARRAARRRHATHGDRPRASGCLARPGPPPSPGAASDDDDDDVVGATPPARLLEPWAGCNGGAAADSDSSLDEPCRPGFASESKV

T2 sequence (P07550 whole entry): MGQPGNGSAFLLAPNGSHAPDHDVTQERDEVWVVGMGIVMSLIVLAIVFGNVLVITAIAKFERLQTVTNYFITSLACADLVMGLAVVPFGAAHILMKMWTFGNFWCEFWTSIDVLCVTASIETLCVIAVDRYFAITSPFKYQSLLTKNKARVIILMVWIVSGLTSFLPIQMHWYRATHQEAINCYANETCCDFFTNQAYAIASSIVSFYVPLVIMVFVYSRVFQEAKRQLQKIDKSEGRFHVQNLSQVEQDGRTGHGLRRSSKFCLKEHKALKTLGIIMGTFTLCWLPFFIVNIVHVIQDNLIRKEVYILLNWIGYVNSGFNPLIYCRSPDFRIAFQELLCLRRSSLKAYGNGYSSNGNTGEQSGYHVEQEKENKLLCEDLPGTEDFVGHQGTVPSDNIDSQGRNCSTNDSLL
T1 sequence (P08588 whole entry): as the sequence (P08588 whole entry, species assumed) above

SMILES	Kd (human beta1-adrenoceptor)	Beta 1-Beta 2 Log KD (selectivity) (human beta1-adrenoceptor)	Kd (human beta2-adrenoceptor)	melting point	Beta 1 Log KD (human beta1-adrenoceptor)	Beta 2 Log KD (human beta2-adrenoceptor)	β1-selectivity (β1-adrenoceptor)
O=C1NCc2cc(OCCNC[C@H](O)COc3ccc4c(c3)OC[C@@H](COc3ccc(F)cc3)O4)ccc21 [Example 25]	0.794 nM	2.64	347 nM	–	–	–	–
NC(=O)c1ccc(OCCNC[C@H](O)COc2ccc3cc(COCC4CC4)ccc3c2)cc1 [Example 28]	117 nM	<2.93	> 100000 nM	148 to 150 °C	–	–	–
NC(=O)c1ccc(OCCNC[C@H](O)COc2ccc(CCOCC3CC3)cc2)cc1 [Example 20]	–	2.28	–	–	−8.99	−6.71	–
NC(=O)c1ccc(OCCNCC(O)COc2ccc(OCCOC3CCCC3)cc2)cc1 (centres unmarked) [Example 1]	–	2.40	–	–	–	–	–
NC(=O)c1ccc(OCCNC[C@H](O)COc2ccc(CCCN3CCC(F)(F)CC3)cc2)cc1 [Example 41, (S)-4-(2-(3-(4-(3-(4,4-difluoropiperidin-1-yl)propyl)phenoxy)-2-hydroxypropyl)amino)-ethoxy)benzamide dihydrochloride]	1.82 nM	2.87	1350 nM	–	–	–	–
NC(=O)c1ccc(OCCNC[C@H](O)COc2ccc(CCCOC3CCCC3)cc2)cc1 [Example 9]	0.912 nM	2.59	355 nM	120 to 122 °C	–	–	–
Cc1ccccc1OC[C@@H]1COc2cc(OC[C@@H](O)CNCCOc3ccc4c(c3)CNC4=O)ccc2O1 [Example 39]	1.07 nM	2.91	871 nM	146 to 148 °C	–	–	–
NC(=O)c1ccc(OCCNC[C@H](O)COc2ccc(CCCN3CCC(F)(F)CC3)cc2)cc1 (as salt: hydrochloride) [Example 41, (S)-4-(2-(3-(4-(3-(4,4-difluoropiperidin-1-yl)propyl)phenoxy)-2-hydroxypropyl)amino)-ethoxy)benzamide dihydrochloride]	–	–	–	234 to 235 °C	–	–	–
NC(=O)c1ccc(OCCNC[C@H](O)COc2ccc3c(c2)OC[C@@H](COC2CCCC2)O3)cc1 [Example 16]	6.17 nM	2.91	5010 nM	134 to 136 °C	–	–	–
O=C1NCc2cc(OCCNC[C@H](O)COc3ccc(CCCN4CCC(F)(F)CC4)cc3)ccc21 [Example 42]	1.95 nM	2.32	407 nM	132 to 133 °C	–	–	–
N#Cc1cc(OCCOCC2CC2)ccc1OCC(O)CNCCNC(=O)Nc1ccc(O)cc1 (centres unmarked) [LK-204545]	–	–	–	–	–	–	1,778 fold
O=C1NCc2cc(OCCNC[C@H](O)COc3ccc4c(c3)OC[C@@H](COCC3CC3)O4)ccc21 [Example 18]	4.57 nM	3.01	4680 nM	–	–	–	–
O=C1NCc2cc(OCCNC[C@H](O)COc3ccc4c(c3)OC[C@@H](COc3ccccc3F)O4)ccc21 [Example 35]	–	3.70	–	–	−8.68	−4.98	–
COc1ccc(OCC2COc3cc(OCC(O)CNCCOc4ccc5c(c4)CNC5=O)ccc3O2)c(F)c1 (centres unmarked) [Example 40]	3.24 nM	2.70	1620 nM	145 to 147 °C	–	–	–
COc1c(F)cc(OC[C@@H]2COc3cc(OC[C@@H](O)CNCCOc4ccc5c(c4)CNC5=O)ccc3O2)cc1F [Example 37]	2.69 nM	3.37	6310 nM	182 to 184 °C	–	–	–
O=C1NCc2cc(OCCNC[C@H](O)COc3ccc(CCCOC4CC4)cc3)ccc21 [Example 45]	–	2.65	–	–	−9.17	−6.52	–
O=C1NCc2cc(OCCNC[C@H](O)COc3ccc4c(c3)OC[C@@H](COc3ccncc3)O4)ccc21 [Example 30]	57.5 nM	3.10	72400 nM	192 to 194 °C	–	–	–
O=C1NCc2cc(OCCNC[C@H](O)COc3ccc4c(c3)OC[C@@H](COc3cccc(F)c3)O4)ccc21 [Example 33]	2.82 nM	2.85	2000 nM	–	–	–	–

SMILES	Kd (human beta1-adrenoceptor)	Beta 1-Beta 2 Log KD (selectivity) (human beta1-adrenoceptor)	Kd (human beta2-adrenoceptor)	melting point	Beta 1 Log KD (human beta1-adrenoceptor)	Beta 2 Log KD (human beta2-adrenoceptor)	β1-selectivity (β1-adrenoceptor)
O=C1NCc2cc(OCCNC[C@H](O)COc3ccc4cc(OCC5CC5)ccc4c3)ccc21 [Example 29]	79.4 nM	<3.10	> 100000 nM	194 to 196 °C	–	–	–
CC(=O)Nc1ccc(OCCNC[C@H](O)COc2ccc3c(c2)OC[C@@H](COCC2CC2)O3)cc1 [Example 15]	7.59 nM	2.76	4370 nM	123 to 125 °C	–	–	–
COc1ccc(OCCNCC(O)COc2ccc(OCCOC3CCCC3)cc2)cc1 (racemic) [Example 3]	7.41 nM	2.01	759 nM	–	–	–	–
CCOCCOc1ccc(OC[C@@H](O)CNCCc2ccc(OC)c(OC)c2)cc1 [Example D-140S]	–	–	–	–	–	–	4,400 fold
O[C@@H](CNCCOc1ccc2nccnc2c1)COc1ccc(CCCOCC2CC2)cc1 [Example 21]	2.75 nM	2.19	427 nM	–	–	–	–
CC(=O)Nc1ccc(OCCNC[C@H](O)COc2ccc(CCCOCC3CC3)cc2)cc1 [Example 13]	–	2.3	–	–	−8.83	−6.53	–
O[C@@H](CNCCOc1ccc2ncccc2c1)COc1ccc(CCCOCC2CC2)cc1 [Example 12]	0.832 nM	2.22	138 nM	128 to 130 °C	–	–	–
CC1(C)COc2cc(OC[C@@H](O)CNCCOc3ccc(C(N)=O)cc3)ccc2O1 [Example 44, (S)-4-(2-(3-(2,2-dimethyl-2,3-dihydrobenzo[b][1,4]dioxin-6-yloxy)-2-hydroxypropyl-amino)ethoxy)benzamide]	316 nM	<2.50	> 100000 nM	101 to 103 °C	–	–	–
O[C@@H](CNCCOc1ccc2ncccc2c1)COc1ccc2c(c1)OC[C@@H](COCC1CC1)O2 [Example 14]	4.17 nM	2.48	1260 nM	–	–	–	–
NC(=O)c1ccc(OCCNC[C@H](O)COc2ccc3c(c2)OC[C@@H](COCC2CC2)O3)cc1 [Example 11]	23.4 nM	2.64	10200 nM	136 to 138 °C	–	–	–
O=C1NCc2cc(OCCNC[C@H](O)COc3ccc4c(c3)OC[C@H](COc3ccc(F)cc3)O4)ccc21 [Example 26]	4.17 nM	2.78	2510 nM	161 to 164 °C	–	–	–
CN(C)C(=O)c1ccc(OCCNC[C@H](O)COc2ccc(OCCOC3CCCC3)cc2)cc1 [Example 6]	11.5 nM	1.96	1050 nM	73 to 75 °C	–	–	–
O=c1[nH]c2ccc(OCCNC[C@H](O)COc3ccc(CCCOCC4CC4)cc3)cc2[nH]1 [Example 22]	8.32 nM	2.23	1410 nM	183 to 185 °C	–	–	–
O=C1NCc2cc(OCCNC[C@H](O)COc3ccc4c(c3)OC[C@@H](COc3ccc(OC(F)(F)F)cc3)O4)ccc21 [Example 34]	3.39 nM	3.37	7760 nM	188 to 189 °C	–	–	–
NC(=O)c1ccc(OCCNC[C@H](O)COc2ccc(CCCOC3CC3)cc2)cc1 [Example 46]	–	2.57	–	–	−8.67	−6.10	–
O=C1NCc2cc(OCCNC[C@H](O)COc3ccc4c(c3)OC[C@@H](CN3CCC(F)(F)CC3)O4)ccc21 [Example 43, 5-(2-((S)-3-((R)-2-((4,4-difluoropiperidin-1-yl)methyl)-2,3-dihydrobenzo[b][1,4]-dioxin-6-yloxy)-2-hydroxypropylamino)ethoxy)isoindolin-1-one]	4.27 nM	2.81	2750 nM	134 to 135 °C	–	–	–
O=C1NCc2cc(OCCNC[C@H](O)COc3ccc4c(c3)OC[C@@H](COc3c(F)cccc3F)O4)ccc21 [Example 38]	–	3.34	–	–	−8.54	−5.20	–
NC(=O)c1ccc(OCCNC[C@H](O)COc2ccc(CCCOCC3CC3)cc2)cc1 [Example 8]	2.88 nM	2.66	1320 nM	132 to 135 °C	–	–	–
